Source: patent publication US20050234026A1, “Method and agent for inducing apoptosis/cell death in leukemia cells” (priority 2003, published 2005)
Where two headings read alike, the source gives them in different places.

Assays:
CLL cells = assay: Cytotoxicity of NOS inhibitors and NO quenchers/scavengers for freshly-isolated CLL cells in vitro; assay type: cell-based, human; details: for ED50 for CLL: Table 2, CLL cytotoxicity; for ED50 for CLL (mean ± SEM): CLL cytotoxicity, freshly-isolated patient cells in vitro; for EC50: read-out: EC50 (average concentration of compound that induced 50% CLL cell death), CLL cell death in vitro, ± SEM
[1] = normals and trials for septic shock and migraine; cited from earlier work
normal human BM cells = assay: Colony formation of normal human bone marrow cells / CD34+ cells in methylcellulose; assay type: cell-based; details: normal human BM cells in methylcellulose with erythropoietin and colony stimulating factors
Procedure: The effects of NO on the growth and differentiation of normal human BM cells were analyzed (Reference 85). We felt that normal hematopoietic cells, like malignant hematopoietic cells, would be affected by NO. […] In retrospect, we think that the increase in CFU-GM by NO from SNP may be due to alterations in apoptosis secondary to changes in bcl-2 or caspases. None of the noted inhibitions were related to cGMP.

[2] = system: HL-60 myeloblastic leukemia cells; assay: Growth of HL-60 myeloblastic leukemia cells under NO-delivering drugs; assay type: cell-based, human; details: NO delivered from the drug
Source text: While studying NO and macrophages progressed in the late 1980s, we hypothesized that NO produced in the BM would be a modulator of normal and leukemic hematopoiesis. […] The differentiated cells were vacuolated, and had increased expression of nonspecific esterase, CD11 b, and CD14.

[3] = system: freshly-isolated CLL cells; assay: Apoptosis and death of freshly-isolated CLL cells after exogenous NO donors and drugs; assay type: cell-based, human; details: for ID50, CLL cell apoptosis and death: acute addition
Source text: We next wanted to examine CLL cells. These malignant cells differ in many ways from ANLL and normal hematopoietic. In addition to their different lineage, they are unique in that they have a very low growth […], exist primary in the G0 phase of the cell cycle, and have defective apoptosis. […] NO also synergized with the ara-guanosine prodrug 2-amino-9-[…]-D-6-methoxy araguanine (also called 506U78).

[4] = target: recombinant purified human NOS1 (Homo sapiens, UniProt P29475); assay: Kd for enzyme inhibition, pure human NOS1; assay type: biochemical
recombinant purified human NOS1, sequence (P29475 whole entry): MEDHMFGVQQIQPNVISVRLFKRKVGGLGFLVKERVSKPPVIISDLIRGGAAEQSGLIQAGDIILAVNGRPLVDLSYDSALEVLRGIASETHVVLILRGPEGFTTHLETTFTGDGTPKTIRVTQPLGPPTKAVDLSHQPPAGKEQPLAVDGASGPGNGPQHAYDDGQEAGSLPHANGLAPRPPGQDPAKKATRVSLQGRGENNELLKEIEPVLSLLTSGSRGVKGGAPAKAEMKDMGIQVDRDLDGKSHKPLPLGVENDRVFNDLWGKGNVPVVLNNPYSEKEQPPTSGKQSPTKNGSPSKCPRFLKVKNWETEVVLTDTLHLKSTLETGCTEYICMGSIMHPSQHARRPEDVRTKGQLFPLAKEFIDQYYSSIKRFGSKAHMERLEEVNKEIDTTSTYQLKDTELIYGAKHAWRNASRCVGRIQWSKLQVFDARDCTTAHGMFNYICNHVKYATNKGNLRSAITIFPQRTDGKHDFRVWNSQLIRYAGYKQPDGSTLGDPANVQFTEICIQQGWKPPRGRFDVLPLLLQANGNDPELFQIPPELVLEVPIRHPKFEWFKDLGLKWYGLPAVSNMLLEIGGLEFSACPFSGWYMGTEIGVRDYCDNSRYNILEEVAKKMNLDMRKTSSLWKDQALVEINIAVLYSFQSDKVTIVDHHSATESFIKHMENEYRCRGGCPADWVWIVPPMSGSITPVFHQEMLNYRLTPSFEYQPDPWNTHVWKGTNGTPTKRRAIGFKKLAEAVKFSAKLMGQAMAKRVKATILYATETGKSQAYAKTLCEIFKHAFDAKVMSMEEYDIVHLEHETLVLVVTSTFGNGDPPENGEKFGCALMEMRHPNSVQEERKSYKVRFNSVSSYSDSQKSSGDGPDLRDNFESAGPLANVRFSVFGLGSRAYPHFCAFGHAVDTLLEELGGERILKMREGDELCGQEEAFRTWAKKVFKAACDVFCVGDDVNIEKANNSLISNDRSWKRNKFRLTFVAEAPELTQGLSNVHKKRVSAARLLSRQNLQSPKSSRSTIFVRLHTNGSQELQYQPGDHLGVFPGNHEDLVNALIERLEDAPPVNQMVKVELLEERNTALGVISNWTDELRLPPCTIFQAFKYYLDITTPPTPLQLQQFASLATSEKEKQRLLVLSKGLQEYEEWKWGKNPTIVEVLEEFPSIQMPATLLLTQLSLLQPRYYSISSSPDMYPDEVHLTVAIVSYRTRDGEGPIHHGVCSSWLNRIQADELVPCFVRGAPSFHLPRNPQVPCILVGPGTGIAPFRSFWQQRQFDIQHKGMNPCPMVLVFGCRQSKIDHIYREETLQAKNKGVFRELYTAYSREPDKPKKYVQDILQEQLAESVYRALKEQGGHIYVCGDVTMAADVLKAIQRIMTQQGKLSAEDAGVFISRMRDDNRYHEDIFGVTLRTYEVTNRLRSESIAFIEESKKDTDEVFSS

[5] = cited from earlier work
HL-60 and U937 cells = assay: Growth inhibition of acute nonlymphocytic leukemia cell lines by NO donors; assay type: cell-based, human
Source text: To more closely examine the mechanism of toxicity for myeloid leukemia cells, we did work to determine whether the rate of NO delivery affected its growth inhibition of acute nonlymphocytic leukemia cells. We also wanted to determine whether the NO inhibition of cell growth is associated induction of apoptosis. We treated HL-60 and U937 cells with three compounds that generate the same amount of NO but different rates. […] Furthermore, NO-induced growth inhibition was associated with apoptosis in a rate and concentration-dependent fashion (Reference 39).

pure human enzyme NOS3 = pure human enzyme NOS3 (Homo sapiens, UniProt P29474); assay: Kd for enzyme inhibition, pure human NOS3; assay type: biochemical
pure human enzyme NOS3, sequence (P29474 whole entry): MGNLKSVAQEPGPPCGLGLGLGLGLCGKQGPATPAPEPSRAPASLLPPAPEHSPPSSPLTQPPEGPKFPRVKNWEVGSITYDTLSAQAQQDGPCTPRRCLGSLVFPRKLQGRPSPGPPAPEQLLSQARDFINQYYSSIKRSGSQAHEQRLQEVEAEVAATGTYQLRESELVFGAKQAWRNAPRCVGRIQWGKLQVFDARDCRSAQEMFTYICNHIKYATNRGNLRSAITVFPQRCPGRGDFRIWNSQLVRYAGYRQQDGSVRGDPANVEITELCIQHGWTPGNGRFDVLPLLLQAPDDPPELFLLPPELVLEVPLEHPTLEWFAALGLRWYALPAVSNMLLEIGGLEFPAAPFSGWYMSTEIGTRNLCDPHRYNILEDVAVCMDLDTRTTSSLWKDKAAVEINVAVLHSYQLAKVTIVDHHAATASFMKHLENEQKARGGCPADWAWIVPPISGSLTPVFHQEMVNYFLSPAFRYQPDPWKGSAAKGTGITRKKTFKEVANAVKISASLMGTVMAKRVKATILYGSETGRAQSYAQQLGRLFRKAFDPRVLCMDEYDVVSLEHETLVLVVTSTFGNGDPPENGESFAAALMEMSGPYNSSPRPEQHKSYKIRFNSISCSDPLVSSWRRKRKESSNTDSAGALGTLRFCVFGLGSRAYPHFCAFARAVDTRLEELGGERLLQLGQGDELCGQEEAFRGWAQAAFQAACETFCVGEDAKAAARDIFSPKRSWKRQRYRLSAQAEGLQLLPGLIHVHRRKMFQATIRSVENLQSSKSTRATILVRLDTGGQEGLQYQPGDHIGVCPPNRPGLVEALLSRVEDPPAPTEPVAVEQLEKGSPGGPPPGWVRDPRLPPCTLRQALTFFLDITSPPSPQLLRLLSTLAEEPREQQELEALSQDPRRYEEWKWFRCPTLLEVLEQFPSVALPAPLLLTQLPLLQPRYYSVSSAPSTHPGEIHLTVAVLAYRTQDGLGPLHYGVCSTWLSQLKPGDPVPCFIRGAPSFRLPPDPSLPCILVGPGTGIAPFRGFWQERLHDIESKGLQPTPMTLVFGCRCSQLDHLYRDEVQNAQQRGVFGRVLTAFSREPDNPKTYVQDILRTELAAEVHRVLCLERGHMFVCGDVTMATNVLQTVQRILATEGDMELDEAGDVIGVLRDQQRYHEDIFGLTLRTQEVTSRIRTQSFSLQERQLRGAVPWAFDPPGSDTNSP

Compound: CNC(=N)NCCC[C@H](N)C(=O)O [L-N^G-monomethylarginine]
- ED50 for CLL (CLL cells): >2000 µM
- Effects on cardiovascular, liver, or hematopoietic function [1]: no major effects

Compound: [NH-]c1c[n+](N2CCOCC2)no1 [SIN-1]
- Development of marrow colonies (normal human BM cells): inhibited
- Growth of HL-60 cells [2]: potently inhibited

Compound: Nc1nc(F)nc2c1ncn2[C@@H]1O[C@H](CO)[C@@H](O)[C@@H]1O [fludarabine]
- ID50, CLL cell apoptosis and death ([3]; freshly-isolated CLL cells): 2 µM

Compound: C=CCC(=N)NCCC[C@H](N)C(=O)O [Vinyl-L-NIO, N^5-(1-imino-3-butenyl)-L-ornithine]
- Kd [4]: 0.1 µM
- ED50 for CLL (mean ± SEM) (CLL cells): 747 ± 126 µM
- EC50 (CLL cells; Homo sapiens): 747 ± 126 µM
- ED50 for CLL (CLL cells): 747 µM

Compound: Cc1ccnc(N)c1 [2-amino-4-methyl pyridine]
- ED50 for CLL (CLL cells): >2000 µM

Compound: CC1(C)N([O])C(c2ccc(C(=O)O)cc2)=[N+]([O-])C1(C)C [Carboxy-PTIO, 2-(4-Carboxyphenyl)-4,4,5,5-tetramethylimidazoline-1-oxyl-3-oxide]
- ED50 for CLL (mean ± SEM) (CLL cells): 227 ± 31 µM
- EC50 (CLL cells): 227 ± 31 µM

Compound: FC(F)(F)c1ccccc1-n1ccnc1 [TRIM, 1-(2-Trifluoromethylphenyl)imidazole]
- ED50 for CLL (mean ± SEM) (CLL cells): 445 ± 46 µM
- EC50 (CLL cells; Homo sapiens): 445 ± 46 µM

Compound: CCCN(CCCN)/[N+]([O-])=N/O [PAPA-NO]
- half-life of NO delivery [5]: 30 min
- ID50, CLL cell apoptosis and death ([3]; freshly-isolated CLL cells): 850 µM

Compound: C/C1=C2/[N-][C@H]([C@H](CC(N)=O)[C@@]2(C)CCC(=O)NC[C@@H](C)OP(=O)([O-])O[C@H]2[C@@H](O)[C@@H](n3cnc4cc(C)c(C)cc43)O[C@@H]2CO)[C@]2(C)N=C(/C(C)=C3N=C(/C=C4N=C1[C@@H](CCC(N)=O)C\4(C)C)[C@@H](CCC(N)=O)[C@]\3(C)CC(N)=O)[C@@H](CCC(N)=O)[C@]2(C)CC(N)=O.[Co+3].[OH-] [Hydroxocobalamin]
- ED50 for CLL (mean ± SEM) (CLL cells): 148 ± 46 µM
- EC50 (CLL cells): 148 ± 46 µM

Compound: NCCN(CCN)/[N+]([O-])=N/O [DETA-NO]
- half-life of NO delivery [5]: 1200 min
- Inhibition of leukemia cell and colony growth (rank) (HL-60 and U937 cells): most potent inhibitor
- Interaction with fludarabine in killing CLL cells ([3]; combination with fludarabine): acted synergistically
- ID50, CLL cell apoptosis and death ([3]; freshly-isolated CLL cells): 188 µM
- Interaction with other agents in killing CLL cells ([3]; with 5-fluorouracil, gemcitabine, doxorubicin, chlorambucil or SN-38): did not enhance the activity

Compound: CNCCCCCCN(C)/[N+]([O-])=N/O [MAMA-NO]
- half-life of NO delivery [5]: 2 min
- ID50, CLL cell apoptosis and death ([3]; freshly-isolated CLL cells): 1658 µM

Compound: S-nitrosoacetylpenicillamine [SNAP]
- Development of marrow colonies (normal human BM cells): inhibited
- Growth of HL-60 cells [2]: potently inhibited

Compound: O=[N+]([O-])c1cccc2cn[nH]c12 [7-NI, 7-Nitroindazole]
- ED50 for CLL (mean ± SEM) (CLL cells): 131 ± 23 µM
- EC50 (CLL cells; Homo sapiens): 131 ± 23 µM

Compound: NCCNCCN [DETA]
- Effect on CLL cells (control for NO dependence) ([3]; freshly-isolated CLL cells): had no effects

Compound: NC(=N[N+](=O)[O-])NCCCC(N)C(=O)O [L-N^G-nitroarginine]
- ED50 for CLL (CLL cells): >2000 µM

Compound: Cl.Cl.N=C(Nc1ccc(CCNCc2cccc(Cl)c2)cc1)c1cccs1 [ARL-17477, N-[4-(2-{[(3-chlorophenyl)methyl]amino}ethyl)phenyl]-2-thiophenecarboximide dihydrochloride]
- ED50 for CLL (mean ± SEM) (CLL cells): 11 ± 2 µM
- ED50 for CLL (CLL cells): 11 µM
- EC50 (CLL cells): 11 ± 2 µM
- Kd (pure human enzyme NOS3): 1 µM
